Laboratory results from ChEMBL document CHEMBL1201862, “PubChem BioAssay data set” (2004).
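Where inhibition never reached the appropriate level, the endpoint shown equals the highest concentration tested. Otherwise, values were interpolated linearly from a five-concentration, 48-hour dose response in 96-well plates. GI50: concentration for 50% inhibition of growth.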 The source made the active and inactive calls. No stated cut-off is given here; in the data, active = GI50 up to about 1.1 µM and inactive = higher.

Key:
Assay in all cases: NCI tumour cell line growth inhibition, 48 h
[1] = system: NCI-H23
[2] = system: CAKI-1
[3] = system: CCRF-CEM
[4] = system: UACC-62
[5] = system: T47D
[6] = system: U-251
[7] = system: TK-10
[8] = system: MDA-MB-435
[9] = system: LOX IMVI
[10] = system: HCT-116
[11] = system: HOP-92
[12] = system: OVCAR-4
[13] = system: IGROV-1
[14] = system: NCI/ADR-RES
[15] = system: MOLT-4
[16] = system: SF-295
[17] = system: NCI-H460
[18] = system: A549
[19] = system: SK-MEL-5
[20] = system: SNB-75

Measured: GI50

COc1c2c(cc3c1OCO3)[C@]13C=C[C@H](OC)C[C@H]1N(C2)CC3O (some centres not stated)
inactive: [1] > 100 µM | [2] > 100 µM | [3] > 100 µM | [4] > 100 µM | [5] > 100 µM | [6] > 100 µM | [7] > 100 µM | [8] > 100 µM | [9] > 100 µM | [10] > 100 µM | [11] > 100 µM | [12] > 100 µM | [13] > 100 µM | [14] > 100 µM | [15] 99.1 µM | [16] > 100 µM | [17] > 100 µM | [18] > 100 µM | [19] > 100 µM

CC(=O)O[C@@H](C1C[C@@H](C)[C@H]2[C@@](O)(O1)[C@H](O)[C@@]1(C)C3=CC[C@H]4C(C)(C)[C@@H](OC5OCC(O)C(O)C5O)CC[C@@]45C[C@@]35CC[C@]21C)C(C)(C)O (some centres not stated)
inactive: [1] 22.4 µM | [2] 38.7 µM | [3] 2.82 µM | [4] 18.5 µM | [5] 23.7 µM | [6] 16.8 µM | [7] 22.6 µM | [8] 24 µM | [9] 19.5 µM | [10] 18.1 µM | [11] 23.8 µM | [12] 33.9 µM | [13] 33.2 µM | [14] 46.8 µM | [15] 12.3 µM | [16] 21.1 µM | [17] 18.2 µM | [18] 30.6 µM | [19] 17.8 µM

Cc1cc(S(=O)(=O)[N-]C(=C(C#N)C#N)[n+]2ccc(N(C)C)cc2)c(SCC(=O)O)cc1Cl
inactive: [1] > 100 µM | [2] > 100 µM | [3] > 100 µM | [4] > 100 µM | [5] > 100 µM | [6] > 100 µM | [7] > 100 µM | [8] > 100 µM | [10] > 100 µM | [11] 10 µM | [12] > 100 µM | [13] > 100 µM | [14] > 100 µM | [15] > 100 µM | [16] > 100 µM | [17] > 100 µM | [18] > 100 µM | [19] > 100 µM

CC1=C(C(=O)NNC(=O)C[N+](C)(C)C)CC(C(=O)NNC(=O)C[N+](C)(C)C)=C(C)N1
inactive: [1] > 100 µM | [2] > 100 µM | [3] 21.8 µM | [4] > 100 µM | [5] 63.2 µM | [6] > 100 µM | [7] > 100 µM | [8] > 100 µM | [9] > 100 µM | [10] > 100 µM | [11] 71.8 µM | [12] > 100 µM | [13] > 100 µM | [14] > 100 µM | [15] > 100 µM | [16] > 100 µM | [17] > 100 µM | [18] > 100 µM | [19] > 100 µM

COc1cccc2c1C1(O)C2CCCCCCCCCC12OCCCO2 (configuration not stated)
inactive: [1] > 58.6 µM | [2] > 100 µM | [3] 8.32 µM | [4] > 100 µM | [5] 23.4 µM | [6] 8.63 µM | [7] 49.7 µM | [20] > 44.1 µM | [8] 24.6 µM | [9] 10.5 µM | [10] 6.81 µM | [12] > 100 µM | [13] 41.3 µM | [14] > 100 µM | [15] 6.3 µM | [16] 15.1 µM | [17] 6.25 µM | [18] > 34.5 µM | [19] 21.6 µM

CC(=O)C(=NNc1ccc(-n2c(C)nc3ccccc3c2=O)cc1)C(C)=O
inactive: [1] > 100 µM | [2] > 100 µM | [3] > 100 µM | [4] > 100 µM | [5] > 100 µM | [6] > 100 µM | [7] > 100 µM | [20] > 100 µM | [8] > 100 µM | [9] > 100 µM | [10] > 100 µM | [11] > 100 µM | [13] > 100 µM | [14] > 100 µM | [15] 22.9 µM | [16] > 100 µM | [17] > 100 µM | [18] > 100 µM | [19] 11.7 µM

O=[N+]([O-])c1cccc(Cl)c1Oc1ccc(S(=O)(=O)N/C(=N\O)Nc2ccc(Cl)cc2)cc1
inactive: [1] 15.5 µM | [2] 9.46 µM | [3] 2.55 µM | [4] 12.7 µM | [5] 5.97 µM | [6] 13.6 µM | [7] 14.8 µM | [8] 14.3 µM | [9] 14.3 µM | [10] 12.5 µM | [11] 4.76 µM | [12] 7.1 µM | [13] 15.1 µM | [14] 20.3 µM | [15] 3.11 µM | [16] 16.1 µM | [17] 12.8 µM | [18] 13.9 µM | [19] 11.9 µM
